pIC50, pKi: −log10 of the molar value.
Legend:
VIM-1 = biological target: T1, VIM-1 (Pseudomonas aeruginosa, UniProt A0A0F7KYQ8); assay: biochemical; details: cleavage of nitrocefin (200 uM) by VIM-1 supernatant
T1 construct: made in house; host or cells: ECM6711 strain carrying pUCP24-VIM-1 plasmid; culture supernatant used unpurified

NDM-1 [1] = biological target: T2, NDM-1 (Klebsiella pneumoniae, UniProt C7C422); assay: Inhibition of purified class B carbapenemase NDM-1 (Ki, imipenem substrate); type: biochemical; details: NDM-1, substrate imipenem; read-out: Ki NDM-1, Imipenem
T2 sequence (C7C422 29-270, looked up, species assumed): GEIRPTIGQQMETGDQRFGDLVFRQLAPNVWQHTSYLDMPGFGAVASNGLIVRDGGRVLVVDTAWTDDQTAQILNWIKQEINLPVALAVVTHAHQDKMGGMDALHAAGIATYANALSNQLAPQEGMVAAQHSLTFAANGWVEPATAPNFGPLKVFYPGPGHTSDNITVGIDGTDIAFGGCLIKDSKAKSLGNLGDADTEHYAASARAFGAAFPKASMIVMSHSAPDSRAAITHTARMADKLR

[2] = biological target: T3, purified class A, C and D enzymes (UniProt P0AD64, L31Q/G234S/E235K, species not given); type: biochemical; details: read-out: Ki (SHV-12, NCF); purified SHV-12; nitrocefin reporter substrate
T3 construct: Ki (SHV-12, NCF); other: purified SHV-12; nitrocefin reporter substrate
T3 sequence (P0AD64 1-286 L31Q/G234S/E235K): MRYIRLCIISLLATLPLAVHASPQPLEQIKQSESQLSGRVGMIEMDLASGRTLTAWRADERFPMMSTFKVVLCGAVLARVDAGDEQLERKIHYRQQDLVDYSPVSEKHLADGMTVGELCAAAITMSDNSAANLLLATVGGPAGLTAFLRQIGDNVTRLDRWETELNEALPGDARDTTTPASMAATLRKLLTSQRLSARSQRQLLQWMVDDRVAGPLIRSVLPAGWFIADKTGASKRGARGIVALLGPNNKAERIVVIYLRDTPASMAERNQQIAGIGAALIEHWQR

[3] = biological target: T4, purified class A, C and D enzymes (UniProt Q6XEC0); type: biochemical; details: read-out: Ki (OXA-48, NCF); purified OXA-48; nitrocefin reporter substrate
T4 construct: rows headed: Ki (OXA-48, NCF); other: purified OXA-48; nitrocefin reporter substrate

[4] = biological target: purified class A, C and D enzymes (Escherichia coli, UniProt Q9L5C7); type: biochemical; details: purified CTX-M-14; nitrocefin reporter substrate
Chain of purified class A, C and D enzymes (Escherichia coli, UniProt Q9L5C7) (Q9L5C7 entry or part of it): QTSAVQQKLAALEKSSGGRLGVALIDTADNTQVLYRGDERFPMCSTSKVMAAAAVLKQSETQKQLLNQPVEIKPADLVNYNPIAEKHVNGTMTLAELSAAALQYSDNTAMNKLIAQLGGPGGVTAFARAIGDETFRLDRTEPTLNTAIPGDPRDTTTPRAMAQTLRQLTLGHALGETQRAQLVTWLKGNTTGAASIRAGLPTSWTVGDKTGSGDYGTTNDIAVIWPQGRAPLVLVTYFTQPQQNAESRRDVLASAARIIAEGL

[5] = biological target: purified class A, C and D enzymes (Enterobacter cloacae, UniProt P05364); type: biochemical; details: purified P99/AmpC of ECL; nitrocefin reporter substrate
Chain of purified class A, C and D enzymes (Enterobacter cloacae, UniProt P05364) (P05364 21-381): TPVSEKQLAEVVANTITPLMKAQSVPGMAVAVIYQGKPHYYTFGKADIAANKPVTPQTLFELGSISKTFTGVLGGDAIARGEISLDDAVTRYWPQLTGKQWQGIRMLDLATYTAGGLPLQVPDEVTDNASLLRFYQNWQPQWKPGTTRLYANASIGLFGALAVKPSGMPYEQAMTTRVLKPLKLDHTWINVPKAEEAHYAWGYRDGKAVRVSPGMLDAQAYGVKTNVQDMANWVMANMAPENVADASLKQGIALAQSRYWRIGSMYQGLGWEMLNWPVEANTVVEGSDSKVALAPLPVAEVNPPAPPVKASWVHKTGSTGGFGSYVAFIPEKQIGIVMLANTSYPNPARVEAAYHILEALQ

[6] = biological target: T5, purified class A, C and D enzymes (UniProt Q9F663); type: biochemical; details: read-out: Ki (KPC-2, NCF); purified KPC-2; nitrocefin reporter substrate
T5 construct: rows headed: Ki (KPC-2, NCF); other: purified KPC-2; nitrocefin reporter substrate

NDM-1 [7] = biological target: T2, NDM-1; assay: biochemical; details: cleavage of imipenem (100 uM) by NDM-1; read-out: Ki, Imipenem

SMILES: O=C(O)c1c(OCCF)ccc2c1OB(O)[C@@H](Sc1nncs1)C2 [Compound 87, (3R)-7-(2-fluoroethoxy)-2-hydroxy-3-(1,3,4-thiadiazol-2-ylsulfanyl)-3,4-dihydro-1,2-benzoxaborinine-8-carboxylic acid]
- pIC50 (VIM-1): > 6.00
- pKi (NDM-1 [1]): 7.00 to 8.00
- pKi [2]: > 7.00
- pKi [3]: > 7.00
- Ki (CTX-M-14, NCF) [4]: X (Less than 0.1 μM)
- Ki (P99/AmpC of ECL, NCF) [5]: Y (0.1 μM to 1 μM)
- pKi [6]: 6.00 to 7.00
- pKi (NDM-1 [7]): < 7.00

SMILES: CC(C)Oc1ccc2c(c1C(=O)O)OB(O)[C@@H](Sc1nncs1)C2 [Compound 85, (3R)-2-hydroxy-7-isopropoxy-3-(1,3,4-thiadiazol-2-ylsulfanyl)-3,4-dihydro-1,2-benzoxaborinine-8-carboxylic acid]
- pIC50 (VIM-1): > 6.00
- pKi (NDM-1 [1]): < 7.00
- pKi [2]: > 7.00
- pKi [3]: > 7.00
- Ki (CTX-M-14, NCF) [4]: X (Less than 0.1 μM)
- Ki (P99/AmpC of ECL, NCF) [5]: Y (0.1 μM to 1 μM)
- pKi [6]: 6.00 to 7.00
- pKi (NDM-1 [7]): < 7.00

SMILES: COc1ccc2c(c1C(=O)O)OB(O)[C@@H](Sc1nnc(CN3CCNCC3)n1N)C2 [Compound 71, (3R)-3-[[4-amino-5-(piperazin-1-ylmethyl)-1,2,4-triazol-3-yl]sulfanyl]-2-hydroxy-7-methoxy-3,4-dihydro-1,2-benzoxaborinine-8-carboxylic acid]
- pIC50 (VIM-1): > 6.00
- pKi (NDM-1 [1]): 7.00 to 8.00
- pKi [2]: > 7.00
- pKi [3]: 6.00 to 7.00
- Ki (CTX-M-14, NCF) [4]: X (Less than 0.1 μM)
- Ki (P99/AmpC of ECL, NCF) [5]: Z (Greater than 1 μM)
- pKi [6]: 6.00 to 7.00
- pKi (NDM-1 [7]): 7.00 to 8.00

SMILES: COc1ccc2c(c1C(=O)O)OB(O)[C@@H](Sc1ncns1)C2 [Compound 75, (3R)-2-hydroxy-7-methoxy-3-(1,2,4-thiadiazol-5-ylsulfanyl)-3,4-dihydro-1,2-benzoxaborinine-8-carboxylic acid]
- pIC50 (VIM-1): > 6.00
- pKi (NDM-1 [1]): < 7.00
- pKi [2]: > 7.00
- pKi [3]: > 7.00
- Ki (CTX-M-14, NCF) [4]: X (Less than 0.1 μM)
- Ki (P99/AmpC of ECL, NCF) [5]: Y (0.1 μM to 1 μM)
- pKi [6]: > 7.00
- pKi (NDM-1 [7]): < 7.00

SMILES: NCCOc1ccc2c(c1C(=O)O)OB(O)[C@@H](Sc1nnc(N)s1)C2 [Compound 79, (3R)-7-(2-aminoethoxy)-3-[(5-amino-1,3,4-thiadiazol-2-yl)sulfanyl]-2-hydroxy-3,4-dihydro-1,2-benzoxaborinine-8-carboxylic acid]
- pIC50 (VIM-1): ≤ 6.00
- pKi (NDM-1 [1]): < 7.00
- pKi [2]: > 7.00
- pKi [3]: > 7.00
- Ki (CTX-M-14, NCF) [4]: X (Less than 0.1 μM)
- Ki (P99/AmpC of ECL, NCF) [5]: Y (0.1 μM to 1 μM)
- pKi [6]: < 6.00
- pKi (NDM-1 [7]): < 7.00

SMILES: COc1ccc2c(c1C(=O)O)OB(O)[C@@H](Sc1cncs1)C2 [Compound 69, (3R)-2-hydroxy-7-methoxy-3-thiazol-5-ylsulfanyl-3,4-dihydro-1,2-benzoxaborinine-8-carboxylic acid]
- pIC50 (VIM-1): > 6.00
- pKi (NDM-1 [1]): < 7.00
- pKi [2]: > 7.00
- pKi [3]: > 7.00
- Ki (CTX-M-14, NCF) [4]: X (Less than 0.1 μM)
- Ki (P99/AmpC of ECL, NCF) [5]: Y (0.1 μM to 1 μM)
- pKi [6]: > 7.00
- pKi (NDM-1 [7]): < 7.00

SMILES: Cn1ncc(C(N)=O)c1S[C@H]1Cc2ccc(F)c(C(=O)O)c2OB1O [Compound 56, (3R)-3-(4-carbamoyl-2-methyl-pyrazol-3-yl)sulfanyl-7-fluoro-2-hydroxy-3,4-dihydro-1,2-benzoxaborinine-8-carboxylic acid]
- pIC50 (VIM-1): ≤ 6.00
- pKi (NDM-1 [1]): < 7.00
- pKi [2]: 6.00 to 7.00
- pKi [3]: > 7.00
- Ki (CTX-M-14, NCF) [4]: Y (0.1 μM to 1 μM)
- Ki (P99/AmpC of ECL, NCF) [5]: Z (Greater than 1 μM)
- pKi [6]: 6.00 to 7.00
- pKi (NDM-1 [7]): < 7.00

SMILES: O=C(O)c1c(OCC(F)F)ccc2c1OB(O)[C@@H](Sc1nncs1)C2 [Compound 91, (3R)-7-(2,2-difluoroethoxy)-2-hydroxy-3-(1,3,4-thiadiazol-2-ylsulfanyl)-3,4-dihydro-1,2-benzoxaborinine-8-carboxylic acid]
- pIC50 (VIM-1): > 6.00
- pKi (NDM-1 [1]): 7.00 to 8.00
- pKi [2]: > 7.00
- pKi [3]: > 7.00
- Ki (CTX-M-14, NCF) [4]: X (Less than 0.1 μM)
- Ki (P99/AmpC of ECL, NCF) [5]: Y (0.1 μM to 1 μM)
- pKi [6]: 6.00 to 7.00
- pKi (NDM-1 [7]): 7.00 to 8.00

SMILES: O=C(O)c1cccc2c1OB(O)[C@@H](Sc1nnc(NC3CNC3)s1)C2 [Compound 99, (3R)-3-[[5-(azetidin-3-ylamino)-1,3,4-thiadiazol-2-yl]sulfanyl]-2-hydroxy-3,4-dihydro-1,2-benzoxaborinine-8-carboxylic acid]
- pIC50 (VIM-1): > 6.00
- pKi (NDM-1 [1]): > 8.00
- pKi [2]: > 7.00
- pKi [3]: > 7.00
- Ki (CTX-M-14, NCF) [4]: X (Less than 0.1 μM)
- Ki (P99/AmpC of ECL, NCF) [5]: X (Less than 0.1 μM)
- pKi [6]: 6.00 to 7.00
- pKi (NDM-1 [7]): > 8.00

SMILES: COc1ccc2c(c1C(=O)O)OB(O)[C@@H](Sc1nncn1CCCC(=O)O)C2 [Compound 41, (R)-3-(4-(3-carboxypropyl)-4H-1,2,4-triazol-3-ylthio)-2-hydroxy-7-methoxy-3,4-dihydro-2H-benzo[e][1,2]oxaborinine-8-carboxylic acid]
- pIC50 (VIM-1): > 6.00
- pKi (NDM-1 [1]): > 8.00
- pKi [2]: > 7.00
- pKi [3]: > 7.00
- Ki (CTX-M-14, NCF) [4]: X (Less than 0.1 μM)
- Ki (P99/AmpC of ECL, NCF) [5]: X (Less than 0.1 μM)
- pKi [6]: > 7.00
- pKi (NDM-1 [7]): > 8.00

SMILES: NC(=O)CS[C@H]1Cc2ccc(F)c(C(=O)O)c2OB1O [Compound 49, (3R)-3-(2-amino-2-oxo-ethyl)sulfanyl-7-fluoro-2-hydroxy-3,4-dihydro-1,2-benzoxaborinine-8-carboxylic acid]
- pIC50 (VIM-1): ≤ 6.00
- pKi (NDM-1 [1]): < 7.00
- pKi [2]: > 7.00
- pKi [3]: > 7.00
- Ki (CTX-M-14, NCF) [4]: X (Less than 0.1 μM)
- Ki (P99/AmpC of ECL, NCF) [5]: Y (0.1 μM to 1 μM)
- pKi [6]: > 7.00
- pKi (NDM-1 [7]): < 7.00

SMILES: COc1ccc2c(c1C(=O)O)OB(O)[C@@H](Sc1nnc(NC(CN)CN)s1)C2 [Compound 102, (3R)-3-[[5-[[2-amino-1-(aminomethyl)ethyl]amino]-1,3,4-thiadiazol-2-yl]sulfanyl]-2-hydroxy-7-methoxy-3,4-dihydro-1,2-benzoxaborinine-8-carboxylic acid]
- pIC50 (VIM-1): > 6.00
- pKi (NDM-1 [1]): > 8.00
- pKi [2]: > 7.00
- pKi [3]: 6.00 to 7.00
- Ki (CTX-M-14, NCF) [4]: X (Less than 0.1 μM)
- Ki (P99/AmpC of ECL, NCF) [5]: Z (Greater than 1 μM)
- pKi [6]: < 6.00
- pKi (NDM-1 [7]): > 8.00

SMILES: COc1ccc2c(c1C(=O)O)OB(O)[C@@H](Sc1nnc(SC3CCNCC3)s1)C2 [Compound 112, (3R)-2-hydroxy-7-methoxy-3-[[5-(4-piperidylsulfanyl)-1,3,4-thiadiazol-2-yl]sulfanyl]-3,4-dihydro-1,2-benzoxaborinine-8-carboxylic acid]
- pIC50 (VIM-1): > 6.00
- pKi (NDM-1 [1]): 7.00 to 8.00
- pKi [2]: > 7.00
- pKi [3]: > 7.00
- Ki (CTX-M-14, NCF) [4]: X (Less than 0.1 μM)
- Ki (P99/AmpC of ECL, NCF) [5]: X (Less than 0.1 μM)
- pKi [6]: > 7.00
- pKi (NDM-1 [7]): 7.00 to 8.00

SMILES: COc1ccc2c(c1C(=O)O)OB(O)[C@@H](Sc1nc(C(N)=O)cs1)C2 [Compound 61, (3R)-3-(4-carbamoylthiazol-2-yl)sulfanyl-2-hydroxy-7-methoxy-3,4-dihydro-1,2-benzoxaborinine-8-carboxylic acid]
- pIC50 (VIM-1): > 6.00
- pKi (NDM-1 [1]): < 7.00
- pKi [2]: > 7.00
- pKi [3]: > 7.00
- Ki (CTX-M-14, NCF) [4]: X (Less than 0.1 μM)
- Ki (P99/AmpC of ECL, NCF) [5]: Y (0.1 μM to 1 μM)
- pKi [6]: > 7.00
- pKi (NDM-1 [7]): < 7.00
